Read-outs that look alike come from different tables or passages of the source.
Target: Endothelial lipase (EL) (Homo sapiens (Human), UniProt Q9Y5X9)
Test: Endothelial lipase (EL) enzymatic assay with fluorescent substrate A10070 in DMPG vesicles
Format: biochemical
How it was run: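 Substrate A10070 sits in sonicated DMPG vesicles at 0.11 mole fraction. Lipase and compound preincubated 30 min, 37° C, in HEPES pH 8.0 buffer with CaCl2.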

Chain of Endothelial lipase (EL) (Q9Y5X9 21-500): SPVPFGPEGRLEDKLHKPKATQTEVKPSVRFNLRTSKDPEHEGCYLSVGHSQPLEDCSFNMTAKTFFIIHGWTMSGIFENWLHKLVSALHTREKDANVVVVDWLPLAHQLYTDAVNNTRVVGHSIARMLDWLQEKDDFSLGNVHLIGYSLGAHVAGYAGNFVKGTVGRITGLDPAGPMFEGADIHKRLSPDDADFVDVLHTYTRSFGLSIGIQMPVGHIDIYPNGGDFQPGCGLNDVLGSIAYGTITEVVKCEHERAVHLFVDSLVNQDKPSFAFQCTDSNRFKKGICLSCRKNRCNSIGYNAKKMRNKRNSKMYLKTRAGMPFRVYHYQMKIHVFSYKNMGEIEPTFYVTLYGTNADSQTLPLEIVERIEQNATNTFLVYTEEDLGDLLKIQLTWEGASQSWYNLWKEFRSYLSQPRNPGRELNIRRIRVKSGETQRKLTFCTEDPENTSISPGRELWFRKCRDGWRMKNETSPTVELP

## COCCS(=O)(=O)C(C(=O)NCC(=O)NC1CC1)c1nc2cc(C(F)(F)F)c(-c3cnnc(C)c3)cc2s1 (stereo not shown) [Example 187, N-[(cyclopropyl-carbamoyl)methyl]-2-(2-methoxyethane-sulfonyl)-2-[6-(6-methylpyridazin-4-yl)-5-(trifluoromethyl)-1,3-benzothiazol-2-yl]acetamide]
  IC50: 0.229 µM

## CC(C)S(=O)(=O)C(C(=O)NCC(=O)NC1CC1)c1nc2c(F)cc(-c3ccc4cnn(C)c4c3)cc2s1 (stereo not shown) [Example 281, N-[(cyclopropyl-carbamoyl)methyl]-2-[4-fluoro-6-(1-methyl-1H-indazol-6-yl)-1,3-benzothiazol-2-yl]-2-(propane-2-sulfonyl)acetamide]
  IC50: 0.009 µM

## Cc1nn(-c2ccc(-c3cc4sc(C(C(=O)NCC(=O)NC5CC5)S(=O)(=O)CCC(F)(F)F)nc4cc3F)cc2)c(N)c1C#N (stereo not shown) [Example 587, 2-{6-[4-(5-amino-4-cyano-3-methyl-1H-pyrazol-1-yl)phenyl]-5-fluoro-1,3-benzothiazol-2-yl}-N-[(cyclopropyl-carbamoyl)methyl]-2-(3,3,3-trifluoropropane-sulfonyl)acetamide]
  IC50: 0.003 µM

## COCCNC(=O)c1ccc(-c2ccc3nc(C(C(=O)NCC(=O)NC4CC4)S(=O)(=O)c4ccc(F)cc4)sc3c2)cc1 (stereo not shown) [Example 450, 4-[2-({[(cyclopropyl-carbamoyl)methyl]carbamoyl}(4-fluorobenzene-sulfonyl)methyl)-1,3-benzothiazol-6-yl]-N-(2-methoxyethyl) benzamide]
  IC50: 0.019 µM

## CC(C)S(=O)(=O)C(C(=O)NCC(=O)NC1CC1)c1nc2cc(F)c(-c3ccc(NC(=O)CCc4ccccc4)cc3)cc2s1 (stereo not shown) [Example 578, N-{4-[2-({[(cyclopropyl-carbamoyl)methyl]carbamoyl} (propane-2-sulfonyl)methyl)-5-fluoro-1,3-benzothiazol-6-yl]phenyl}-3-phenyl-propanamide]
  IC50: 0.004 µM

## COCCS(=O)(=O)C(C(=O)NCC(=O)NC1CC1)c1nc2cc(-c3cncnc3)ccc2s1 (stereo not shown) [Example 335, N-[(cyclopropyl-carbamoyl)methyl]-2-(2-methoxyethane-sulfonyl)-2-[5-(pyrimidin-5-yl)-1,3-benzothiazol-2-yl]acetamide]
  IC50: 0.016 µM

## CC(C)(O)CNC(=O)c1ccc(-c2ccc3nc(C(C(=O)NCC(=O)NC4CC4)S(C)(=O)=O)sc3c2)cc1 (stereo not shown) [Example 567, 4-[2-({[(cyclopropyl-carbamoyl)methyl]carbamoyl} (methanesulfonyl)methyl)-1,3-benzothiazol-6-yl]-N-(2-hydroxy-2-methylpropyl) benzamide]
  IC50: 0.004 µM

## COCCS(=O)(=O)C(C(=O)NCC(=O)NC1CC1)c1nc2cc(-c3ccncc3)ccc2s1 (stereo not shown) [Example 79, N-[(cyclopropyl-carbamoyl)methyl]-2-(2-methoxyethane-sulfonyl)-2-[5-(pyridin-4-yl)-1,3-benzothiazol-2-yl]acetamide]
  IC50: 0.04 µM

## Cc1cc(F)ncc1-c1cc2sc(C(C(=O)NCC(=O)NC3CC3)S(C)(=O)=O)nc2cc1F (stereo not shown) [Example 319, N-[(cyclopropyl-carbamoyl)methyl]-2-[5-fluoro-6-(6-fluoro-4-methylpyridin-3-yl)-1,3-benzothiazol-2-yl]-2-methanesulfonyl-acetamide]
  IC50: 0.015 µM

## COCCS(=O)(=O)C(C(=O)NCC(=O)NC1CC1)c1nc2ccc(-c3ccncc3)cc2s1 (stereo not shown) [Example 289, N-[(cyclopropyl-carbamoyl)methyl]-2-(2-methoxyethane-sulfonyl)-2-[6-(pyridin-4-yl)-1,3-benzothiazol-2-yl] acetamide]
  IC50: 0.023 µM

## CC(C)OCCNC(=O)CNC(=O)C(c1nc2cc(F)cc(-c3ccc(F)nc3)c2s1)S(=O)(=O)c1ccc(F)cc1 (stereo not shown) [Example 465, 2-[5-fluoro-7-(6-fluoropyridin-3-yl)-1,3-benzothiazol-2-yl]-2-(4-fluorobenzene-sulfonyl)-N-({[2-(propan-2-yloxy)ethyl]carbamoyl}methyl)acetamide]
  IC50: 0.053 µM

## COCCS(=O)(=O)C(C(=O)NCC(=O)NC1CC1)c1nc2cc(F)c(-c3ccc(C)nc3)cc2s1 (stereo not shown) [Example 158, N-[(cyclopropyl-carbamoyl)methyl]-2-[5-fluoro-6-(6-methylpyridin-3-yl)-1,3-benzothiazol-2-yl]-2-(2-methoxyethane-sulfonyl) acetamide]
  IC50: 0.011 µM

## COCCS(=O)(=O)C(C(=O)NCC(=O)NC1CC1)c1nc2cc(-c3cccc(OC)c3)ccc2s1 (stereo not shown) [Example 84, N-[(cyclopropyl-carbamoyl)methyl]-2-(2-methoxyethane-sulfonyl)-2-[5-(3-methoxyphenyl)-1,3-benzothiazol-2-yl]acetamide]
  IC50: 0.082 µM

## COCCS(=O)(=O)C(C(=O)NCC(=O)NC1CC1)c1nc2cc(-c3c(C)ccnc3F)ccc2s1 (stereo not shown) [Example 92, N-[(cyclopropyl-carbamoyl)methyl]-2-[5-(2-fluoro-4-methylpyridin-3-yl)-1,3-benzothiazol-2-yl]-2-(2-methoxyethane-sulfonyl) acetamide]
  IC50: 0.077 µM

## COCCS(=O)(=O)C(C(=O)NCC(=O)NC1CC1)c1nc2ccc(-c3ccnc(O)c3F)cc2s1 (stereo not shown) [Example 598, N-(2-(Cyclopropylamino)-2-oxoethyl)-2-(6-(3-fluoro-2-hydroxypyridin-4-yl)benzo[d]thiazol-2-yl)-2-((2-methoxyethyl)sulfonyl)acetamide]
EL from conditioned media of HT-1080 cells, 30 min preincubation at 37° C.
  IC50: 0.101 µM

## Cc1cc2nc(C(C(=O)NCC(=O)NC3CC3)S(=O)(=O)C(C)C)sc2cc1-c1ccc(C(F)(F)F)nc1 (stereo not shown) [Example 209, N-[(cyclopropyl-carbamoyl)methyl]-2-{5-methyl-6-[6-(trifluoromethyl)pyridin-3-yl]-1,3-benzothiazol-2-yl}-2-(propane-2-sulfonyl) acetamide]
  IC50: 0.011 µM

## O=C(CNC(=O)C(c1nc2cc(F)c(-c3cccc(NC(=O)OCc4ccccc4)c3)cc2s1)S(=O)(=O)CCC(F)(F)F)NC1CC1 (stereo not shown) [Example 553, benzyl N-{3-[2-({[(cyclopropyl-carbamoyl)methyl]carbamoyl}(3,3,3-trifluoropropane-sulfonyl)methyl)-5-fluoro-1,3-benzothiazol-6-yl]phenyl} carbamate]
  IC50: 0.001 µM

## CC1(O)CN(C(=O)c2ccc(-c3ccc4nc(C(C(=O)NCC(=O)NC5CC5)S(=O)(=O)c5ccccc5)sc4c3)cc2)C1 (stereo not shown) [Example 402, 2-(benzenesulfonyl)-N-[(cyclopropyl-carbamoyl)methyl]-2-{6-[4-(3-hydroxy-3-methylazetidine-1-carbonyl)phenyl]-1,3-benzothiazol-2-yl}acetamide]
  IC50: 0.006 µM

## CS(=O)(=O)C(C(=O)NCC(=O)NC1CC1)c1nc2cc(-c3ccc(F)nc3)c(F)cc2s1 (stereo not shown) [Example 359, N-[(cyclopropyl-carbamoyl)methyl]-2-[6-fluoro-5-(6-fluoropyridin-3-yl)-1,3-benzothiazol-2-yl]-2-methanesulfonyl-acetamide]
  IC50: 0.007 µM

## CN(C)S(=O)(=O)C(C(=O)NCC(=O)NC1CC1)c1nc2c(F)cc(-c3ccc(F)nc3)cc2s1 (stereo not shown) [Example 489, N-[(cyclopropyl-carbamoyl)methyl]-2-(dimethyl-sulfamoyl)-2-[4-fluoro-6-(6-fluoropyridin-3-yl)-1,3-benzothiazol-2-yl]acetamide]
  IC50: 0.165 µM

## O=C(CNC(=O)C(c1nc2c(F)cc(-c3ccc4[nH]c(=O)ccc4c3)cc2s1)S(=O)(=O)c1ccc(F)cc1)NC1CC1 (stereo not shown) [Example 475, N-[(cyclopropyl-carbamoyl)methyl]-2-[4-fluoro-6-(2-oxo-1,2-dihydroquinolin-6-yl)-1,3-benzothiazol-2-yl]-2-(4-fluorobenzene-sulfonyl)acetamide]
  IC50: 0.007 µM

## COCCS(=O)(=O)C(C(=O)NCC(=O)NC1CC1)c1nc2ccc(-c3ccc(C(=O)N4CCO[C@@H](C)C4)cc3)cc2s1 (stereo partly drawn) [Example 562, N-[(cyclopropyl-carbamoyl)methyl]-2-(2-methoxyethane-sulfonyl)-2-(6-{4-[(2S)-2-methyl-morpholine-4-carbonyl]phenyl}-1,3-benzothiazol-2-yl)acetamide]
  IC50: 0.011 µM

## COCCS(=O)(=O)C(C(=O)NCC(=O)NC1CC1)c1nc2ccc(-c3cnc(Cl)n3C)cc2s1 (stereo not shown) [Example 345, 2-[6-(2-chloro-1-methyl-1H-imidazol-5-yl)-1,3-benzothiazol-2-yl]-N-[(cyclopropyl-carbamoyl)methyl]-2-(2-methoxyethane-sulfonyl)acetamide]
  IC50: 0.135 µM

## COCCS(=O)(=O)C(C(=O)NCC(=O)NC1CC1)c1nc2cc(C)c(-c3ccc4[nH]c(=O)ccc4c3)cc2s1 (stereo not shown) [Example 151, N-[(cyclopropyl-carbamoyl)methyl]-2-(2-methoxyethane-sulfonyl)-2-[5-methyl-6-(2-oxo-1,2-dihydroquinolin-6-yl)-1,3-benzothiazol-2-yl]acetamide]
  IC50: 0.002 µM

## COCCS(=O)(=O)C(C(=O)NCC(=O)NC1CC1)c1nc2ccc(-c3ccc(N(C)C(C)=O)cc3)cc2s1 (stereo not shown) [Example 27, N-[(cyclopropyl-carbamoyl)methyl]-2-(2-methoxy-ethanesulfonyl)-2-{6-[4-(N-methylacetamido)phenyl]-1,3-benzothiazol-2-yl}acetamide]
  IC50: 0.058 µM

## Cc1cc(-c2cc3sc(C(C(=O)NCC(=O)NC4CC4)S(C)(=O)=O)nc3cc2OC(F)F)cnn1 (stereo not shown) [Example 604, N-[(cyclopropyl-carbamoyl)methyl]-2-[5-(difluoromethoxy)-6-(6-methylpyridazin-4-yl)-1,3-benzothiazol-2-yl]-2-methanesulfonyl-acetamide]
  IC50: 0.027 µM

## COCCS(=O)(=O)C(C(=O)NCC(=O)NC1CC1)c1nc2c(F)cc(-c3cncnc3)cc2s1 (stereo not shown) [Example 221, N-[(cyclopropyl-carbamoyl)methyl]-2-[4-fluoro-6-(pyrimidin-5-yl)-1,3-benzothiazol-2-yl]-2-(2-methoxyethane-sulfonyl) acetamide]
  IC50: 0.061 µM

## CC(C)c1ccc(-c2cc3sc(C(C(=O)NCC(=O)NC4CC4)S(=O)(=O)C(C)C)nc3cc2F)cn1 (stereo not shown) [Example 251, N-[(cyclopropyl-carbamoyl)methyl]-2-{5-fluoro-6-[6-(propan-2-yl)pyridin-3-yl]-1,3-benzothiazol-2-yl}-2-(propane-2-sulfonyl) acetamide]
  IC50: 0.008 µM

Reference: patent US10173991B2, “Sulfone amide linked benzothiazole inhibitors of endothelial lipase” (BRISTOL-MYERS SQUIBB COMPANY, priority 2014, dated 2019)
